The test system of assay [1] is patient with a severe form of OCD. In words: Case study: treatment of a patient with a severe form of OCD. In kind it is in vivo, human. How it is done: The GnRH-analogue triptorelin is available in a pharmaceutical preparation (Decapeptyl® Depot). In the use of this preparation, an injection is administered containing triptorelin embonate in a dose corresponding to 3.75 mg triptorelin. Injections with this dose are given intramuscularly. They should be repeated every fourth week from the first injection.
A detailed case study of the treatment of a patient with a severe form of OCD is disclosed in the following, as supporting evidence of the effect of the method.
A then person was referred to a psychiatric specialist clinic from another qualified psychiatrist for evaluation and treatment of a severe condition of OCD.
The situation when the patient came to the clinic was that they had sickness pension since more than ten years. They lived alone in a small apartment which they hardly ever left. Obsessions and compulsive rituals occupied most of their time. They repeated against their will meaningless strings of words silently during several hours every day. They felt they had to read the newspaper according to certain ritual patterns; if they did anything wrong, they had to start again from the beginning. Sometimes, it took them the whole day to read the newspaper. […] Among other things, they placed their books so that the covers were strictly oriented along north-south lines. Their contacts with other persons were highly restraint and mainly limited to some relatives.
The clinical diagnosis was that they suffered from a very serious form of OCD. They were also found to be intelligent without any signs of any other mental illness or personality disorder. Thus, it was a clearly defined case of OCD.
During long periods of time the patient had been treated with the drugs which presently are considered to have the best effect against OCD. In the treatment of the patient they had also been given supportive psychotherapy.
In order to overcome this, treatment with the long-acting GnRH-analogue triptorelin (Decapeptyl® Depot) was given every fourth week as deep intramuscular depot injections with a dose corresponding to 3.75 mg triptorelin in each injection.

The test system of assay [2] is symptoms of androgenic hyperactivity. In words: Case study: treatment against the patient's symptoms of androgenic hyperactivity. In kind it is in vivo, human. The following applies: one patient (male pattern baldness, sebaceous skin, acne, sexual drive). The protocol:
An endocrinological investigation was performed, based upon their symptoms of androgenic hyperactivity.

[3] abbreviates: one patient, 3.75 mg i.m. depot every fourth week, after two plus another two months.

`CC(=O)O[C@]1(C(C)=O)CC[C@H]2[C@@H]3C=C(Cl)C4=CC(=O)[C@@H]5C[C@@H]5[C@]4(C)[C@H]3CC[C@@]21C` [cyproterone acetate]: the “effect on OCD” value in assay [1] (one patient, given as anti-androgenic treatment) is on record as “without any obvious effect”. The “improvement of OCD on previous treatment” value in assay [1] (same patient, treated before triptorelin) was “without any major improvement”. Further, the “effect on symptoms of androgenic hyperactivity” value in assay [2] is recorded as “without any significant effects”.
With `CC(C)C[C@H](NC(=O)[C@@H](Cc1c[nH]c2ccccc12)NC(=O)[C@H](Cc1ccc(O)cc1)NC(=O)[C@H](CO)NC(=O)[C@H](Cc1c[nH]c2ccccc12)NC(=O)[C@H](Cc1c[nH]cn1)NC(=O)[C@@H]1CCC(=O)N1)C(=O)N[C@@H](CCCNC(=N)N)C(=O)N1CCC[C@H]1C(=O)NCC(N)=O` [triptorelin], in assay [1] (one patient, 3.75 mg deep intramuscular depot injection every fourth week, initially), the “OCD-symptoms, initial phase of treatment” value is recorded as “accentuation of the patients OCD-symptoms”. For the same compound, in assay [1] (one patient, 3.75 mg i.m. depot every fourth week, after two months), the “patient's condition after two months treatment” value is “began to feel better”. For the same compound, in assay [1] (setting [3]), the “obsessive thoughts after another two months” value is given as “all obsessive thoughts had disappeared” and the “patient's condition after another two months” value was “dramatically better”. For the same compound, the “clinical outcome of very severe OCD” value in assay [1] (one patient, after three months of treatment) is “substantially recovered”.
